What was measured:
[1] = molecular target: T1, 5-hydroxytryptamine receptor 4 (Homo sapiens, UniProt Q13639); experiment: Intrinsic activity at human 5HT4C receptor expressed in HEK293 cells assessed as accumulation of cAMP by flash plate adenylyl cyclase activation assay relative to serotonin; format: functional, cell-based
[2] = species: Homo sapiens; experiment: Selectivity ratio of Ki for human 5HT3A receptor to Ki for human 5HT4C receptor
[3] = molecular target: T1, 5-hydroxytryptamine receptor 4; experiment: Displacement of [H]GR-113808 from human 5HT4C receptor expressed in HEK293 cells by liquid scintillation counting; format: cell-based
[4] = molecular target: T1, 5-hydroxytryptamine receptor 4; experiment: Agonist activity at human 5HT4C receptor expressed in HEK293 cells assessed as accumulation of cAMP by flash plate adenylyl cyclase activation assay; format: functional, cell-based

T1 sequence (Q13639 whole entry): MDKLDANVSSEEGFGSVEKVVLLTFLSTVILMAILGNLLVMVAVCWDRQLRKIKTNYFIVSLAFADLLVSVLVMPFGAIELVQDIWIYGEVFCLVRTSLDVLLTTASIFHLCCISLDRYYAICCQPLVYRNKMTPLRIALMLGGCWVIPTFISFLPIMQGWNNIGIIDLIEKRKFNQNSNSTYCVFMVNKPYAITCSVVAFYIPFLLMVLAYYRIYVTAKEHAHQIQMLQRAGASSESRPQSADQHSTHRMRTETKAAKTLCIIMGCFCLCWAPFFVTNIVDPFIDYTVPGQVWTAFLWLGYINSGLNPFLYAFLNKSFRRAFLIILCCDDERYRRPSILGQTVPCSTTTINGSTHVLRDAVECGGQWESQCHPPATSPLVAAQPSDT

SMILES	Intrinsic activity [1]	Ratio Ki [2]	Ki [3]	EC50 [4]
COc1ccc2[nH]cc(C(=O)NC3CCNCC3)c2c1	0%	6.7	3.16 µM	–
CC(C)n1c(=O)c(C(=O)N[C@H]2C[C@H]3CC[C@@H](C2)N3CCCCCN2CCN(S(C)(=O)=O)CC2)cc2ccccc21	> 100%	2800	0.0158 µM	0.00126 µM
CC(C)n1c(=O)c(C(=O)N[C@H]2C[C@H]3CC[C@@H](C2)N3CCCCCS(=O)(=O)O)cc2ccccc21	> 100%	21	1.58 µM	0.0126 µM
CC(C)n1c(=O)c(C(=O)N[C@H]2C[C@H]3CC[C@@H](C2)N3CCCCCN(C)CCc2c[nH]c3ccccc23)cc2ccccc21	> 100%	6000	0.00316 µM	0.000631 µM
CC(C)n1nc(C(=O)N[C@H]2C[C@H]3CC[C@@H](C2)N3)c2ccccc21	94%	0.092	0.0631 µM	0.0398 µM
COc1cc(N)c(Cl)cc1C(=O)NC1CCN(CCCCCCCCN2CCN(S(C)(=O)=O)CC2)CC1	> 100%	330	0.0158 µM	0.0398 µM
COc1ccc2[nH]cc(C(=O)N[C@H]3C[C@H]4CC[C@@H](C3)N4)c2c1	77%	1.4	3.16 µM	2.51 µM
CC(C)n1c(=O)c(C(=O)N[C@H]2C[C@H]3CC[C@@H](C2)N3CCCCCN2CCCCC2)cc2ccccc21	> 100%	8100	0.00501 µM	0.001 µM
CC(C)n1c(=O)c(C(=O)N[C@H]2C[C@H]3CC[C@@H](C2)N3CCCCCCCCO)cc2ccccc21	> 100%	1100	0.0501 µM	0.0158 µM
CC(C)n1c(=O)c(C(=O)NCC2CCNCC2)cc2ccccc21	> 100%	1.2	0.794 µM	0.1 µM
CCN1[C@@H]2CC[C@H]1C[C@@H](NC(=O)c1cc3ccccc3n(C(C)C)c1=O)C2	96%	19	0.126 µM	0.0316 µM
CC(C)n1c(=O)c(C(=O)N[C@H]2C[C@H]3CC[C@@H](C2)N3CCCCCCCCN2C(=O)c3ccccc3C2=O)cc2ccccc21	> 100%	120	0.0316 µM	0.0501 µM
COc1cc(N)c(Cl)cc1C(=O)NC1CCN(CCCCCCCCO)CC1	> 100%	29	0.0794 µM	0.0158 µM
COc1ccc2[nH]cc(C(=O)NCCN3CCNCC3)c2c1	0%	25	0.316 µM	–
COc1cc(N)c(Cl)cc1C(=O)NC1CCN(CCCCCN(C)CCc2c[nH]c3ccccc23)CC1	> 100%	12000	0.00158 µM	0.00126 µM
COc1cc(N)c(Cl)cc1C(=O)NC1CCN(CCCCCCCCN2CCCCC2)CC1	> 100%	2000	0.00316 µM	0.00316 µM
CCCCCCCCN1[C@@H]2CC[C@H]1C[C@@H](NC(=O)c1cc3ccccc3n(C(C)C)c1=O)C2	> 100%	150	0.0631 µM	0.0398 µM
COc1cc(N)c(Cl)cc1C(=O)NC1CCN(CCCCCCCCS(=O)(=O)O)CC1	> 100%	4.3	15.8 µM	1 µM
CC(C)n1c(=O)c(C(=O)N[C@H]2C[C@H]3CC[C@@H](C2)N3CCN(C)CCc2c[nH]c3ccccc23)cc2ccccc21	92%	480	0.0398 µM	0.00126 µM
CCCCCN1[C@@H]2CC[C@H]1C[C@@H](NC(=O)c1cc3ccccc3n(C(C)C)c1=O)C2	> 100%	890	0.0631 µM	0.0398 µM
CC(C)n1c(=O)n(C(=O)NCC2CCNCC2)c2ccccc21	92%	0.21	0.0398 µM	0.0158 µM
COc1cc(N)c(Cl)cc1C(=O)NC1CCN(CCCCCO)CC1	> 100%	110	0.0631 µM	0.0158 µM
COc1cc(N)c(Cl)cc1C(=O)NC1CCN(CCCCCS(=O)(=O)O)CC1	93%	0.15	6.31 µM	0.398 µM
CC(C)n1c(=O)c(C(=O)N[C@H]2C[C@H]3CC[C@@H](C2)N3CCCCCCCCN(C)CCc2c[nH]c3ccccc23)cc2ccccc21	> 100%	2300	0.00316 µM	0.001 µM
COc1cc(N)c(Cl)cc1C(=O)NC1CCN(CCS(=O)(=O)O)CC1	> 100%	1.5	25.1 µM	1.58 µM
CC(C)n1c(=O)c(C(=O)N[C@H]2C[C@H]3CC[C@@H](C2)N3CCCCCN2C(=O)c3ccccc3C2=O)cc2ccccc21	> 100%	1200	0.0158 µM	0.0251 µM

SMILES	Intrinsic activity [1]	Ratio Ki [2]	Ki [3]	EC50 [4]
COc1cc(N)c(Cl)cc1C(=O)N[C@H]1C[C@H]2CC[C@@H](C1)N2	57%	0.2	0.158 µM	0.1 µM
COc1cc(N)c(Cl)cc1C(=O)NC1CCN(CCCCCCCCN(C)CCc2c[nH]c3ccccc23)CC1	> 100%	2800	0.00126 µM	0.000794 µM
COc1cc(N)c(Cl)cc1C(=O)NC1CCN(CCN(C)CCc2c[nH]c3ccccc23)CC1	> 100%	290	0.0398 µM	0.0158 µM
COc1cc(N)c(Cl)cc1C(=O)NC1CCN(CCN2C(=O)c3ccccc3C2=O)CC1	94%	13	7.94 µM	0.631 µM
CC(C)n1c(=O)c(C(=O)N[C@H]2C[C@H]3CC[C@@H](C2)N3CCN2CCN(S(C)(=O)=O)CC2)cc2ccccc21	> 100%	450	0.0631 µM	0.00631 µM
COc1cc(N)c(Cl)cc1C(=O)NC1CCN(CCO)CC1	> 100%	1.9	0.2 µM	0.0631 µM
CC(C)n1c(=O)c(C(=O)N[C@H]2C[C@H]3CC[C@@H](C2)N3CCCCCCCCN2CCCCC2)cc2ccccc21	99%	9900	0.00316 µM	0.00126 µM
CC(C)n1c(=O)c(C(=O)N[C@H]2C[C@H]3CC[C@@H](C2)N3CCCCCCCCN2CCN(S(C)(=O)=O)CC2)cc2ccccc21	> 100%	2100	0.0158 µM	0.00316 µM
CC(C)n1c(=O)c(C(=O)N[C@H]2C[C@H]3CC[C@@H](C2)N3)cc2ccccc21	> 100%	0.85	0.251 µM	0.0126 µM
CC(C)n1c(=O)c(C(=O)N[C@H]2C[C@H]3CC[C@@H](C2)N3CCO)cc2ccccc21	> 100%	3.2	0.126 µM	0.0316 µM
CC(C)n1c(=O)n(C(=O)N[C@H]2C[C@H]3CC[C@@H](C2)N3)c2ccccc21	> 100%	0.013	0.316 µM	0.0158 µM
CC(C)n1c(=O)n(C(=O)NCCN2CCNCC2)c2ccccc21	> 100%	1	0.126 µM	0.00794 µM
CC(C)n1nc(C(=O)NCC2CCNCC2)c2ccccc21	0%	3	0.00794 µM	–
COc1cc(N)c(Cl)cc1C(=O)NCC1CCNCC1	81%	0.12	0.316 µM	0.398 µM
CC(C)n1c(=O)c(C(=O)N[C@H]2C[C@H]3CC[C@@H](C2)N3CCCCCO)cc2ccccc21	> 100%	460	0.0631 µM	0.0251 µM
CCCCCCCCN1CCC(NC(=O)c2cc(Cl)c(N)cc2OC)CC1	> 100%	23	0.0794 µM	0.0398 µM
COc1cc(N)c(Cl)cc1C(=O)NCCN1CCNCC1	> 100%	1.1	1.26 µM	0.501 µM
COc1cc(N)c(Cl)cc1C(=O)NC1CCN(CCCCCN2CCN(S(C)(=O)=O)CC2)CC1	> 100%	280	0.0398 µM	0.0126 µM
COc1cc(N)c(Cl)cc1C(=O)NC1CCN(CCN2CCN(S(C)(=O)=O)CC2)CC1	97%	21	0.126 µM	0.02 µM
CC(C)n1c(=O)c(C(=O)N[C@H]2C[C@H]3CC[C@@H](C2)N3CCS(=O)(=O)O)cc2ccccc21	> 100%	49	1 µM	0.00631 µM
COc1cc(N)c(Cl)cc1C(=O)NC1CCN(CCCCCN2CCCCC2)CC1	> 100%	990	0.01 µM	0.00501 µM
COc1ccc2[nH]cc(C(=O)NCC3CCNCC3)c2c1	42%	1.1	3.98 µM	6.31 µM
COc1cc(N)c(Cl)cc1C(=O)NC1CCN(CCCCCCCCN2C(=O)c3ccccc3C2=O)CC1	89%	40	0.0398 µM	0.00316 µM
COc1cc(N)c(Cl)cc1C(=O)NC1CCN(CCN2CCCCC2)CC1	> 100%	3.9	0.251 µM	0.1 µM
CCCCCN1CCC(NC(=O)c2cc(Cl)c(N)cc2OC)CC1	> 100%	33	0.1 µM	0.0251 µM
